Data published in US10385097B2, “Ether compounds for treatment of medical disorders” (Achillion Pharmaceuticals, Inc., priority 2015, dated 2019).

Biological target: T1, Human Factor D (Homo sapiens, UniProt P00746)
T1 construct: purified from human serum; purchased Complement Technology, Inc; host or cells: human serum (natural protein, not recombinant)
Test: Human Factor D Assay
Type: biochemical
Settings: Table 3; Human Factor D 80 nM, substrate Z-L-Lys-SBzl; read-out: (IC50 (Stars))
Procedure: Example 8. Human Factor D Assay
Human Factor D (purified from human serum, Complement Technology, Inc.) at 80 nM final concentration is incubated with test compound at various concentrations for 5 minutes at room temperature in 50 mM Tris, 1M NaCl, pH 7.5. A synthetic substrate Z-L-Lys-SBzl and DTNB (Ellman's reagent) are added to final concentrations of 100 μM each. Absorbance at 405 nm (A405) is recorded at 30 second intervals for 30 minutes using a microplate spectrophotometer. IC50 values are calculated by nonlinear regression of complement Factor D reaction rates as a function of test compound concentration.

T1 sequence (P00746 26-253): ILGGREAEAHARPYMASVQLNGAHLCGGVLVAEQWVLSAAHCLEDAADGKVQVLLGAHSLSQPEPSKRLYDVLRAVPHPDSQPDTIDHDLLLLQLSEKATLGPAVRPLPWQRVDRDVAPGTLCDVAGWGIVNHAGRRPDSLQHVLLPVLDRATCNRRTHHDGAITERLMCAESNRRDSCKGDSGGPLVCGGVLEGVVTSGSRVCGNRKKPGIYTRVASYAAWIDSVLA

`CC(=O)c1cn(CC(=O)N2C[C@H](F)C[C@H]2C(=O)NCCCc2ccccc2)c2ccc(OCS(=O)(=O)NC(C)(C)C)cc12` [Compound 135, (2S,4R)-1-(2-(3-Acetyl-5-((N-(tert-butyl)sulfamoyl)methoxy)-1H-indol-1-yl)acetyl)-4-fluoro-N-(3-phenylpropyl)pyrrolidine-2-carboxamide] showed an IC50 of under 1000 nM.

`CC(=O)c1cn(CC(=O)N2C[C@H](F)C[C@H]2C(=O)NCCCc2ccccc2)c2ccc(OCS(N)(=O)=O)cc12` [Compound 136, (2S,4R)-1-(2-(3-Acetyl-5-(sulfamoylmethoxy)-1H-indol-1-yl)acetyl)-4-fluoro-N-(3-phenylpropyl)pyrrolidine-2-carboxamide] gave an IC50 of under 1000 nM.

Compound `CC(=O)c1cn(CC(=O)N2C[C@H](F)C[C@H]2C(=O)NCCCCc2ccccc2)c2ccc(OCS(=O)(=O)NC(C)(C)C)cc12` [Compound 138, (2S,4R)-1-(2-(3-Acetyl-5-((N-(tert-butyl)sulfamoyl)methoxy)-1H-indol-1-yl)acetyl)-4-fluoro-N-(4-phenylbutyl)pyrrolidine-2-carboxamide] has an IC50 of under 1000 nM.

`CC(=O)c1cn(CC(=O)N2C[C@H](F)C[C@H]2C(=O)NCCCCc2ccccc2)c2ccc(OCS(N)(=O)=O)cc12` [Compound 139, (2S,4R)-1-(2-(3-Acetyl-5-(sulfamoylmethoxy)-1H-indol-1-yl)acetyl)-4-fluoro-N-(4-phenylbutyl)pyrrolidine-2-carboxamide] gave an IC50 of 1000 to 10000 nM.

`CC(=O)c1cn(CC(=O)N2C[C@H](F)C[C@H]2C(=O)NCc2cccc(Cl)c2F)c2ccc(OCS(=O)(=O)NC(C)(C)C)cc12` [Compound 140, (2S,4R)-1-(2-(3-Acetyl-5-((N-(tert-butyl)sulfamoyl)methoxy)-1H-indol-1-yl)acetyl)-N-(3-chloro-2-fluorobenzyl)-4-fluoropyrrolidine-2-carboxamide] gave an IC50 of under 1000 nM.

`CC(=O)c1cn(CC(=O)N2C[C@H](F)C[C@H]2C(=O)NCc2cccc(Cl)c2F)c2ccc(OCS(N)(=O)=O)cc12` [Compound 141, (2S,4R)-1-(2-(3-Acetyl-5-(sulfamoylmethoxy)-1H-indol-1-yl)acetyl)-N-(3-chloro-2-fluorobenzyl)-4-fluoropyrrolidine-2-carboxamide] was tested, and the IC50 was under 1000 nM.

Work on `CCOP(=O)(COc1ccc2c(c1)c(C(C)=O)cn2CC(=O)N1C[C@H](F)C[C@H]1C(=O)NCc1ccccc1)OCC` [Compound 144, Diethyl (((3-acetyl-1-(2-((2S,4R)-2-(benzylcarbamoyl)-4-fluoropyrrolidin-1-yl)-2-oxoethyl)-1H-indol-5-yl)oxy)methyl)phosphonate] yielded an IC50 of under 1000 nM.

`CC(=O)c1cn(CC(=O)N2C[C@H](F)C[C@H]2C(=O)NCc2ccccc2)c2ccc(OCP(=O)(O)O)cc12` [Compound 145, (((3-Acetyl-1-(2-((2S,4R)-2-(benzylcarbamoyl)-4-fluoropyrrolidin-1-yl)-2-oxoethyl)-1H-indol-5-yl)oxy)methyl)phosphonic acid] showed an IC50 of 1000 to 10000 nM.

Compound `CCOP(=O)(COc1ccc2c(c1)c(C(C)=O)cn2CC(=O)N1C[C@H](F)C[C@H]1C(=O)NCCc1ccccc1)OCC` [Compound 146, Diethyl (((3-acetyl-1-(2-((2S,4R)-4-fluoro-2-(phenethylcarbamoyl)pyrrolidin-1-yl)-2-oxoethyl)-1H-indol-5-yl)oxy)methyl)phosphonate] has an IC50 of under 1000 nM.

Work on `CC(=O)c1cn(CC(=O)N2C[C@H](F)C[C@H]2C(=O)NCCc2ccccc2)c2ccc(OCP(=O)(O)O)cc12` [Compound 147, (((3-Acetyl-1-(2-((2S,4R)-4-fluoro-2-(phenethylcarbamoyl)pyrrolidin-1-yl)-2-oxoethyl)-1H-indol-5-yl)oxy)methyl)phosphonic acid] yielded an IC50 of over 10000 nM.

In the case of `CCOP(=O)(COc1ccc2c(c1)c(C(C)=O)cn2CC(=O)N1C[C@H](F)C[C@H]1C(=O)NCCCc1ccccc1)OCC` [Compound 148, diethyl (((3-acetyl-1-(2-((2S,4R)-4-fluoro-2-((3-phenylpropyl)carbamoyl)pyrrolidin-1-yl)-2-oxoethyl)-1H-indol-5-yl)oxy)methyl)phosphonate], the IC50 is reported as under 1000 nM.

In the case of `CC(=O)c1cn(CC(=O)N2C[C@H](F)C[C@H]2C(=O)NCCCc2ccccc2)c2ccc(OCP(=O)(O)O)cc12` [Compound 149, (((3-Acetyl-1-(2-((2S,4R)-4-fluoro-2-((3-phenylpropyl)carbamoyl)pyrrolidin-1-yl)-2-oxoethyl)-1H-indol-5-yl)oxy)methyl)phosphonic acid], the IC50 is reported as over 10000 nM.

For `CCOP(=O)(COc1ccc2c(c1)c(C(C)=O)cn2CC(=O)N1C[C@H](F)C[C@H]1C(=O)NCCCCc1ccccc1)OCC` [Compound 150, Diethyl (((3-acetyl-1-(2-((2S,4R)-4-fluoro-2-((4-phenylbutyl)carbamoyl)pyrrolidin-1-yl)-2-oxoethyl)-1H-indol-5-yl)oxy)methyl)phosphonate], the IC50 was under 1000 nM.

`CC(=O)c1cn(CC(=O)N2C[C@H](F)C[C@H]2C(=O)NCCCCc2ccccc2)c2ccc(OCP(=O)(O)O)cc12` [Compound 151, (((3-Acetyl-1-(2-((2S,4R)-4-fluoro-2-((4-phenylbutyl)carbamoyl)pyrrolidin-1-yl)-2-oxoethyl)-1H-indol-5-yl)oxy)methyl)phosphonic acid] was tested, and the IC50 was over 10000 nM.

`CCOP(=O)(COc1ccc2c(c1)c(C(C)=O)cn2CC(=O)N1C[C@H](F)C[C@H]1CCNS(=O)(=O)c1ccccc1)OCC` [Compound 158, Diethyl (((3-acetyl-1-(2-((2R,4R)-4-fluoro-2-(2-(phenylsulfonamido)ethyl)pyrrolidin-1-yl)-2-oxoethyl)-1H-indol-5-yl)oxy)methyl)phosphonate] gave an IC50 of 1000 to 10000 nM.

Compound `CC(=O)c1cn(CC(=O)N2C[C@H](F)C[C@H]2CCNS(=O)(=O)c2ccccc2)c2ccc(OCP(=O)(O)O)cc12` [Compound 159, (((3-Acetyl-1-(2-((2R,4R)-4-fluoro-2-(2-(phenylsulfonamido)ethyl)pyrrolidin-1-yl)-2-oxoethyl)-1H-indol-5-yl)oxy)methyl)phosphonic acid] has an IC50 of over 10000 nM.

Compound `CCOP(=O)(COc1ccc2c(c1)c(C(C)=O)cn2CC(=O)N1CC[C@H]1C(=O)Nc1cccc(C)n1)OCC` [Compound 163, Diethyl (S)-(((3-acetyl-1-(2-(2-((6-methylpyridin-2-yl)carbamoyl)azetidin-1-yl)-2-oxoethyl)-1H-indol-5-yl)oxy)methyl)phosphonate] has an IC50 of over 10000 nM.

With `CC(=O)c1cn(CC(=O)N2C[C@H](F)C[C@H]2C(=O)Nc2cncc(Br)n2)c2ccc(Oc3ncc(F)cn3)cc12` [Compound 164, (2S,4R)-1-(2-(3-Acetyl-5-((5-fluoropyrimidin-2-yl)oxy)-1H-indol-1-yl)acetyl)-N-(6-bromopyrazin-2-yl)-4-fluoropyrrolidine-2-carboxamide] the IC50 was under 1000 nM.

`CC(=O)c1cn(CC(=O)N2[C@@H]3C[C@@H]3C[C@H]2C(=O)Nc2cncc(Br)n2)c2ccc(Oc3ncc(F)cn3)cc12` [Compound 165, (1R,3S,5R)-2-(2-(3-Acetyl-5-((5-fluoropyrimidin-2-yl)oxy)-1H-indol-1-yl)acetyl)-N-(6-bromopyrazin-2-yl)-2-azabicyclo[3.1.0]hexane-3-carboxamide] was tested, and the IC50 was under 1000 nM.

Compound `CC(=O)c1cn(CC(=O)N2C[C@H](F)C[C@H]2C(=O)Nc2cncc(Br)n2)c2ccc(Oc3ncc(C)cn3)cc12` [Compound 166, (2S,4R)-1-(2-(3-Acetyl-5-((5-methylpyrimidin-2-yl)oxy)-1H-indol-1-yl)acetyl)-N-(6-bromopyrazin-2-yl)-4-fluoropyrrolidine-2-carboxamide] has an IC50 of under 1000 nM.

Work on `CC(=O)c1nn(CC(=O)N2C[C@H](F)C[C@H]2C(=O)Nc2cncc(Br)n2)c2ccc(Oc3ncc(C)cn3)cc12` [Compound 167, (2S,4R)-1-(2-(3-Acetyl-5-((5-methylpyrimidin-2-yl)oxy)-1H-indazol-1-yl)acetyl)-N-(6-bromopyrazin-2-yl)-4-fluoropyrrolidine-2-carboxamide] yielded an IC50 of under 1000 nM.

Work on `CC(=O)c1nn(CC(=O)N2C[C@H](F)C[C@H]2C(=O)Nc2cncc(Br)n2)c2ccc(Oc3nccc(C)n3)cc12` [Compound 168, (2S,4R)-1-(2-(3-Acetyl-5-((4-methylpyrimidin-2-yl)oxy)-1H-indazol-1-yl)acetyl)-N-(6-bromopyrazin-2-yl)-4-fluoropyrrolidine-2-carboxamide] yielded an IC50 of under 1000 nM.

Work on `CC(=O)c1nn(CC(=O)N2C[C@H](F)C[C@H]2C(=O)Nc2cccc(Br)n2)c2ccc(Oc3ncc(C)cn3)cc12` [Compound 169, (2S,4R)-1-(2-(3-Acetyl-5-((5-methylpyrimidin-2-yl)oxy)-1H-indazol-1-yl)acetyl)-N-(6-bromopyridin-2-yl)-4-fluoropyrrolidine-2-carboxamide] yielded an IC50 of under 1000 nM.

Work on `CC(=O)c1nn(CC(=O)N2[C@@H]3C[C@@H]3C[C@H]2C(=O)Nc2cncc(Br)n2)c2ccc(Oc3ncc(C)cn3)cc12` [Compound 170, (1R,3S,5R)-2-(2-(3-Acetyl-5-((5-methylpyrimidin-2-yl)oxy)-1H-indazol-1-yl)acetyl)-N-(6-bromopyrazin-2-yl)-2-azabicyclo[3.1.0]hexane-3-carboxamide] yielded an IC50 of under 1000 nM.

`CC(=O)c1nn(CC(=O)N2[C@@H]3C[C@@H]3C[C@H]2C(=O)Nc2cccc(Br)n2)c2ccc(Oc3ncc(C)cn3)cc12` [Compound 171, (1R,3S,5R)-2-(2-(3-Acetyl-5-((5-methylpyrimidin-2-yl)oxy)-1H-indazol-1-yl)acetyl)-N-(6-bromopyridin-2-yl)-2-azabicyclo[3.1.0]hexane-3-carboxamide] was tested, and the IC50 was under 1000 nM.

In the case of `CC(=O)c1nn(CC(=O)N2C[C@H](F)C[C@H]2C(=O)Nc2nc(Br)ccc2C)c2ccc(Oc3ncc(C)cn3)cc12` [Compound 172, (2S,4R)-1-(2-(3-Acetyl-5-((5-methylpyrimidin-2-yl)oxy)-1H-indazol-1-yl)acetyl)-N-(6-bromo-3-methylpyridin-2-yl)-4-fluoropyrrolidine-2-carboxamide], the IC50 is reported as under 1000 nM.
